From patent US10906920B2, “Heterocyclic compounds as immunomodulators” (Incyte Corporation, priority 2018, dated 2021)

Tests used:
[1] = tested on: PD-L1 aAPC/CHO-K1 cells and Jurkat-PD-1-NFAT effector cells; test: Nuclear factor of activated T-cells (NFAT) assay; format: cell-based
Protocol: The culture media of PD-L1 aAPC/CHO-K1 cells were first replaced with assay medium (RPMI1640 medium with 1% FBS). […] The assay plate was incubated at 37° C., 5% CO2 for 24 hours. […] After 8 minutes incubation at room temperature, luminescence was read at with Pherastar microplate reader (BMG Labtech). The fold of induction (FOI) was calculated based on the ratio of luminescence normalized to the DMSO wells within each assay plate. The maximum percentage of induction was reported based on the ratio between the highest FOI of each compound and the maximum FOI of control compound within each assay plate. Wells with DMSO were served as the negative controls and wells containing control compound with the highest FOI were used as positive controls. EC50 determination was performed by fitting the curve of percent control activity versus the log of the compound concentration using the GraphPad Prism 6.0 software.

[2] = tested on: U2OS/PD-L1 cells and Jurkat-PD-1-SHP cells; test: Src homology region 2 domain-containing phosphatase (SHP) assay; format: cell-based; settings: Homo sapiens
Protocol: Example B. Src Homology Region 2 Domain-Containing Phosphatase (SHP) Assay
U2OS/PD-L1 cells (DiscoveRx Corporation) were maintained in McCoy's 5A medium with addition of 10% FBS, 0.25 μg/ml Puromycin. After removing the culture media, the cell medium was replaced with assay medium (RPMI1640 medium with 1% FBS). The U2OS/PD-L1 cells were then added in 384-well black clear bottom assay plate (CELLCOAT® Tissue Culture Plates, Greiner Bio-One) at 5000 cells per well in 20 μL assay medium. Test compounds were prepared by serial dilution in DMSO and 125 nL compound were first transferred to the 384 REMP plate well (Thermofisher) by ECHO liquid handler (Labcyte) followed with addition of 27.5 μL assay medium. 5 μL/well compounds in the assay medium were transferred to the cell plate with 0.05% DMSO in the final assay at 0.25 Jurkat-PD-1-SHP cells (DiscoveRx Corporation) were cultured in RPMI1640 medium supplemented with 10% FBS, 250 μg/ml Hygromycin B, 500 μg/ml G418. After the replacement of culture media with assay medium, 5,000 Jurkat-PD-1-SHP cells in 20 μL were dispensed into each well. The assay plate was incubated at 37° C., 5% CO2 for 2 hours before 2.5 μL PathHunter reagent 1 (DiscoveRx Corporation) were added to each well. […] Chemiluminescent signal was recorded with TopCount reader (Perkin Elmer) after incubation at room temperature for 1 hour. […]

Compound | EC50 [1] | IC50 [2]
Cn1c(C(=O)Nc2cccc(-c3cccc(NC(=O)c4nc5c(n4C)CCN(CC(C)(C)C(=O)O)C5)c3Cl)c2Cl)nc2c1CCN(CCC13CCC(C(=O)O)(CC1)C3)C2 [Example 21, 4-(2-(2-((3′-(5-(2-carboxy-2-methylpropyl)-1-methyl-4,5,6,7-tetrahydro-1H-imidazo[4,5-c]pyridine-2-carboxamido)-2,2′-dichloro-[1,1′-biphenyl]-3-yl)carbamoyl)-1-methyl-1,4,6,7-tetrahydro-5H-imidazo[4,5-c]pyridin-5-yl)ethyl)bicyclo[2.2.1]heptane-1-carboxylic acid] | 0.01 to 0.1 µM | –
Cn1c(C(=O)Nc2cccc(-c3cccc(NC(=O)c4nc5c(n4C)CCN(CCC46CCC(C(=O)O)(CC4)C6)C5)c3Cl)c2Cl)nc2c1CCN(CCCCC(=O)O)C2 [Example 63, 4-(2-(2-((3′-(5-(4-carboxybutyl)-1-methyl-4,5,6,7-tetrahydro-1H-imidazo[4,5-c]pyridine-2-carboxamido)-2,2′-dichloro-[1,1′-biphenyl]-3-yl)carbamoyl)-1-methyl-1,4,6,7-tetrahydro-5H-imidazo[4,5-c]pyridin-5-yl)ethyl)bicyclo[2.2.1]heptane-1-carboxylic acid] | – | ≤ 0.01 µM
